# Experiments:
# [1] = system: acute Con A-induced inflammation; experiment: Acute Con A-induced inflammation (paw oedema) in mice; type: in vivo; conditions: Table 3, male CBA mice
# Method: Saline solution was similarly administered to the control animals. There were 10 mice in each group. After one hour, con A at a dose of 100 mkg/20 g of body weight was administered by sub-plantar injection into the plantar aponeurosis of the left paws of mice of both the experimental and control groups. The same amount of saline splution was injected into the contralateral paws. After one hour, the mice were killed and the experimental and control paws were weighed to assess the reaction index of the inflammation in the ankle-joint (Liubimov et al, 1999).
# The anti-inflammatory effect of Compound 2 and Compound 7 was compared in male mice weighing 18-22 g, using the model described in Example 9. The ED50, i.e. the dose reducing paw ooedema by 50% one hour after injection of Concanavalin A, was calculated.
# [2] = system: white male mice
# Method: (§1) The acute toxicity of 1,3-dialkyl-4,5-bis (N-methylcarbamoyl)imidazolium salts was assessed following intraperitoneal injection into 200 white male mice weighing 18 to 20 g. Dead animals were counted daily after the administration of the test substance.
# [3] = system: regeneration of liver after partial hepatectomy; experiment: Liver regeneration after partial hepatectomy in rats; type: in vivo
# Method: Partial hepatectomy was performed using the conventional method (Higgins and Anderson, 1931) by removing the left lateral and central lobes of the liver from 80 male white rats, weighing 180-200 g.
# Compound 2, Compound 4, Compound 5 or Compound 6 was administered to the experimental groups intraperitoneally in equimolar doses of 0.1 mM/kg and 0.2 mM/kg. These optimal doses were determined in preliminary experiments. The control group received intraperitoneal injections of saline solution. The compounds were administered on the day after the operation and then one injection was given daily over the course of 7 days, since maximum growth of the liver mass in rats is observed in the first 7 days after partial hepatectomy (Solopaev, 1980).
# The effectiveness of the compounds was compared to that of a combination of non-steroid anabolic regeneration stimulators which are used in the treatment of liver pathology, namely Riboxin and potassium orotate at a dose of 0.2 mM/kg each (Rychnev and Frolov, 1984).
# For quantitative evaluation of the regeneration process in the liver the coefficient of regeneration completion as determined by the formula below was used: [formula] where
# Stimulation of the regeneration of tissue after hepatectomy in response to different medicinal preparations is associated with an increase in the synthesis of nucleic acids, as indicated by the increase in the content of RNA and DNA in the regenerated tissue. Quantitative analysis of DNA and RNA was performed by centrifugation. […] The enzymic component of anti-oxidant protection was also assessed on the basis of the activity of catalase and superoxidedismutase (SOD).
# 5 ml of […] of HCIO4 solution were added to the sample (100 mg). In order to ensure complete sedimentation of the acid-insoluble fraction, the beakers were put in ice for 15 minutes. Then they were centrifuged for 10 minutes at 5000 revolutions per minute. The sediment was washed twice with 0.2 M HCIO4. After the final centrifugation, the walls of the beaker were carefully dried with gauze and filter paper. The sediment was ground down with a glass pestle, suspended in 1 ml of water and then 1 ml of 0.6 M KON solution was added at room temperature. Hydrolysis was performed over the course of 1 hour at 37° C., then the beakers were put in ice to stop the hydrolysis process. 4 ml of the 0.6 M solution were added to each beaker and the beakers were left in ice for another 15 minutes, then centrifuged for 15 minutes at 5000 revolutions per minute. The supernatant was used to determine the RNA by UV absorption at 260 nm and 290 nm compared to the control sample containing 0.4M of HCIO4). The amount of RNA in μg per 1 ml of the supernatant was calculated using the following formula: [formula] where C=is the RNA concentration (μg/ml)
# DNA analysis was carried out on the sediment remaining after the alkaline hydrolysis used to determine RNA. 0.5 M of HCIO4 (5 ml per sample) was poured into the dried beaker containing the sediment. Hydrolysis was performed in a boiling water bath for 20 minutes. The amount of DNA in μg per 1 ml of the hydrolysate was calculated using the following formula: [formula] where C=is the DNA concentration (μg/ml). Catalase Activity
# Catalase activity was determined using the permanganate method. The optimal amount of the substrate (3 ml of 1% H2O2) and 1 ml of the enzyme were added to 10 ml of phosphate buffer, pH 7.8. After 10 minutes the reaction was stopped by adding 1.5 ml of H2SO4 (50%). The remaining hydrogen peroxide was filtered with 0.1M of KMnO4 solution. Catalase activity was calculated on the basis that 1 ml of 0.1M of KMnO4 solution corresponds to […] of H2O2.
# SOD activity was determined using the dianisidine method, which is based on the fact that under ultraviolet irradiation Riboflavin (Rb) is converted to an excited (ionised) state and therefore becomes able to attack reduced dianisidine (DH2). […]
# [4] = system: liver after partial hepatectomy; experiment: Morphological study of the liver after partial hepatectomy; type: in vivo, rats; conditions: rat, in vivo
# Method: Morphological methods are highly informative in the assessment of repair processes. Histological tests of the liver after partial hepatectomy were performed using generally accepted methods. Microscopic sections were stained with hematoxylin and eosin using Van Gieson's methodology. Liver tests after partial hepatectomy were performed on 8 groups of animals, totalling 37 rats. All animals were examined one week after hepatectomy.
# [5] = in vivo; conditions: male, mouse, ip
# Method: as §1
smiles,measurement,setting,value
"CC[n+]1cn(C)c(C(=O)NC)c1C(=O)NC [Compound 4, 1-methyl-3-ethyl-4,5-bis(N-methylcarbamoyl)-imidazolium chloride]",Reaction index (%),[1]; 10 mg/kg intra-peritoneally one hour before Con A,14.1 ± 2.0%
same,Reaction index (%),[1]; 50 mg/kg intra-peritoneally one hour before Con A,12.4 ± 0.4 %
same,toxicity,[2],very low toxicity
same,Catalase E activity,[3]; 0.2 mM/kg,18.0 ± 2.6 μgM/min/g tissue × 1000
same,DNA content (in mg/g of tissue),[3]; 0.2 mM/kg,3.72 ± 0.09 mg/g of tissue
same,Protein content,[3]; 0.2 mM/kg,85.5 ± 10.6 Mg/g tissue
same,RNA content (mg/g of tissue),[3]; 0.2 mM/kg,7.14 ± 0.2 mg/g of tissue
same,SOD activity,[3]; 0.2 mM/kg,90.0 ± 3.3 Units/g tissue
same,Level of recovery,"[3]; 0.2 mM/kg intraperitoneally, 7 days, hepatectomy alone = 100",128.3
same,histological findings in the liver,[4],showed no undesirable effects
same,LD50 at 14 days,[5],1220 mg/kg
